Results from US10023570B2 (Array BioPharma, Inc., priority 2015, dated 2018).
pIC50: −log10 of the molar value. Like-named read-outs stand apart in the source and are kept apart here.

Columns and labels:
[1] = molecular target: N-terminal GST tagged recombinant human RET cytoplasmic domain (aa 658-end), wild type RET kinase (Homo sapiens (Human), UniProt P07949); assay: RET Enzyme Assay (HTRF KinEASE-TK), wild type RET; assay type: biochemical
[2] = molecular target: Kif5b-RET fusion protein in HEK-293 cells (Homo sapiens, UniProt P07949); assay: cell-based
Chain of Kif5b-RET fusion protein in HEK-293 cells (P07949 29-1114 limits assumed): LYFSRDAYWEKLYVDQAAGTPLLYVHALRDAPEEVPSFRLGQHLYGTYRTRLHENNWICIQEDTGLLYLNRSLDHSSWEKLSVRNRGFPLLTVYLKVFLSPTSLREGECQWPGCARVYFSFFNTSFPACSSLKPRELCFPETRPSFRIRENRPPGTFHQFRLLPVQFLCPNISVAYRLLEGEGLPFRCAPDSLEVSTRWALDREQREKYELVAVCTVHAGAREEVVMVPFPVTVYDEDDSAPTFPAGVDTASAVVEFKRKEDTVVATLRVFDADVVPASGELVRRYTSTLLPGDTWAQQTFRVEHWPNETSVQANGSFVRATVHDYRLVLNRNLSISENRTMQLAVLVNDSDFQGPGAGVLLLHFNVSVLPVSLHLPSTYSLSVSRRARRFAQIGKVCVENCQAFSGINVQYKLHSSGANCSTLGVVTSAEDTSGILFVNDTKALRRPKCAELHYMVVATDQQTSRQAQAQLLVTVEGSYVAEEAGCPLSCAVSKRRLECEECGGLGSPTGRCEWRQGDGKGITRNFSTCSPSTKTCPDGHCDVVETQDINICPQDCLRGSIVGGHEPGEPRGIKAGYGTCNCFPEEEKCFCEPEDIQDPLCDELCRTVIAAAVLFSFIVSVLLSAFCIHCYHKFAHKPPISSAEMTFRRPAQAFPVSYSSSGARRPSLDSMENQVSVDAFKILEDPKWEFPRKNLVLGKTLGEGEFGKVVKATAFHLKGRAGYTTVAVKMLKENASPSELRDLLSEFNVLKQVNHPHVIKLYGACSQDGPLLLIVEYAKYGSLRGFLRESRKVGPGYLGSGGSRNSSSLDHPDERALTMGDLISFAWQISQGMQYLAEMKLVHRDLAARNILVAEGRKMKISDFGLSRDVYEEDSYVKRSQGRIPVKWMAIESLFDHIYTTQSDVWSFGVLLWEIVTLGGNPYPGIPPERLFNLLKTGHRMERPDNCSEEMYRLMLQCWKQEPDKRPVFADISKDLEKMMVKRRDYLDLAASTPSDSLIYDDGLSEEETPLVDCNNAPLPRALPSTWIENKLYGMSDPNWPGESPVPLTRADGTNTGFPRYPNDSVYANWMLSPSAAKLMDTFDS
Procedure: The cellular potency of a compound inhibiting RET kinase was determined in HEK-293 cells expressing a Kif5b-RET fusion protein. Briefly, HEK-293 cells expressing a Kif5b-RET fusion protein were plated at 50K cells/well in 96 well poly-D-Lysine coated plates the day prior to the assay. The cells were incubated for 1 hour with test compound in DMEM (Dulbecco's Modified Eagle Medium) at a final DMSO concentration of 0.5%. […] After 1 hour the media was removed, the cells were fixed with 3.8% formaldehyde for 20 min, washed with PBS, and permeabilized for 10 min with 100% methanol. […] All antibodies were diluted in LI-COR Block containing 0.05% Tween. The plates were washed with PBS-0.05% Tween20, 100 μL PBS was added to each well, and the plates were read on a LI-COR Aerius fluorescent plate reader. The phospho-RET signal was normalized to the GAPDH signal. […] The IC50 value is the point where the curve crosses 50 POC.

[3] = molecular target: human KDR protein in HEK-293 cells (Homo sapiens (Human), UniProt P35968); assay: KDR Cell Assay (phospho-KDR in HEK-293 cells expressing inducible KDR); assay type: cell-based; details: pKDR Cell HEK 10% FBS IC50, HEK-293 cells expressing inducible KDR, VEGF stimulated
Chain of human KDR protein in HEK-293 cells (P35968 20-1356): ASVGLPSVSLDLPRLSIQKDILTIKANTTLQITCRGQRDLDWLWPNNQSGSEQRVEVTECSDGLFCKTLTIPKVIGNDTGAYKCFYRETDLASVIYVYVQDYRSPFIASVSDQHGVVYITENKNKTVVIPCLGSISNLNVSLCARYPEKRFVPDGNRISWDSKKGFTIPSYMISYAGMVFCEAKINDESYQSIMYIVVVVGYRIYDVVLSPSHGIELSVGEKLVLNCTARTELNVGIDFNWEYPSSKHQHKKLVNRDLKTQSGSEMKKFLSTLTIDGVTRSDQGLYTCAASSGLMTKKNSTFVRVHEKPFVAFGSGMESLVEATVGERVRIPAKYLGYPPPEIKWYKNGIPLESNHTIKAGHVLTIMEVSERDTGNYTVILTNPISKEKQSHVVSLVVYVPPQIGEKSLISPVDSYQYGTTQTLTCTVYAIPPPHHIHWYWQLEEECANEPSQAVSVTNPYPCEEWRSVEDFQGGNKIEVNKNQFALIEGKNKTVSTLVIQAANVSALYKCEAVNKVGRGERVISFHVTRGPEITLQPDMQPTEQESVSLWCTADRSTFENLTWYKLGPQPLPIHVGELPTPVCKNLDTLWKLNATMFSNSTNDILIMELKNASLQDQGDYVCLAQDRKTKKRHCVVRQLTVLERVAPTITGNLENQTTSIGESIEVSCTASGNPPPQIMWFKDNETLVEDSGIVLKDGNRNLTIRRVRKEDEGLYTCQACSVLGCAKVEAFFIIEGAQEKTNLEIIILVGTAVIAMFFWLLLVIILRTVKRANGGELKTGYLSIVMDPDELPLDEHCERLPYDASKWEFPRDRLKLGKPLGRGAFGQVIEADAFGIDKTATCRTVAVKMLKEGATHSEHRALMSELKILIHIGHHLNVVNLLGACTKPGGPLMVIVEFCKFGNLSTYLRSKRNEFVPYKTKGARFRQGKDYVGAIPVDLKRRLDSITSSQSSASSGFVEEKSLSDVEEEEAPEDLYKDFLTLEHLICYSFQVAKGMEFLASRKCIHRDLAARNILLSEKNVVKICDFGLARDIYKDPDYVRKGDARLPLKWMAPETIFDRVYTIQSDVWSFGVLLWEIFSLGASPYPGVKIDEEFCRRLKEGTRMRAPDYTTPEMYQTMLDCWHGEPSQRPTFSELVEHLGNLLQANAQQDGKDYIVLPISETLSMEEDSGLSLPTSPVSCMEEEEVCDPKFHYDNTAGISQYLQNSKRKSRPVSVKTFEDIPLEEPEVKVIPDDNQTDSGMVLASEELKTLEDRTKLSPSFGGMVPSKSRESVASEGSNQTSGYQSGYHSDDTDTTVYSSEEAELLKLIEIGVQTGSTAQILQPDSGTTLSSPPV
Outline: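 HEK-293 cells with inducible human KDR were treated with compound for 1 h in DMEM (0.25% DMSO final), then lysed. Phospho-KDR was quantified by Meso Scale immunoassay, expressed as percent of control, and IC50 taken where a 4-parameter logistic fit crossed 50 POC.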

[4] = HEK-293 cells expressing Kif5b-RET, read-out: KIF5B-RET pTYR1062 Cell IC50
[5] = HEK-293 cells expressing Kif5b-RET, phospho-RET(Tyr1062), read-out: KIF5B-RET pTYR1062 Cell IC50

Chain of N-terminal GST tagged recombinant human RET cytoplasmic domain (aa 658-end), wild type RET kinase (P07949 658-1114): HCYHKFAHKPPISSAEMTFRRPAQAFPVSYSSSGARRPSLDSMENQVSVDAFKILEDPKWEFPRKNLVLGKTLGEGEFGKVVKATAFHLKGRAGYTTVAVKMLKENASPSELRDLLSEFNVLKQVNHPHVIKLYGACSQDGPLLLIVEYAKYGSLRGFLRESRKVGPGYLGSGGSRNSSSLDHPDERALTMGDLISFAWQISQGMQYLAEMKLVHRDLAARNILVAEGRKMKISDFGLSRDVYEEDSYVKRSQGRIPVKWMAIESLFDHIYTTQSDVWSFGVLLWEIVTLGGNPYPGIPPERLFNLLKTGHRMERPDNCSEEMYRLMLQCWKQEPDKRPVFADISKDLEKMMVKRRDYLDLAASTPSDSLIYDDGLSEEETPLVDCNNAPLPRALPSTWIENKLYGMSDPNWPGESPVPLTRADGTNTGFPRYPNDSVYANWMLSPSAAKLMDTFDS

Row | SMILES | pIC50 ([1]; wild type RET, 1 mM ATP) | pIC50 [2, 5] | pIC50 ([3]; 10% FBS) | pIC50 [2] | also measured
1 | Cn1cc(-c2cc(-c3ccc(N4CCN(CCNC(=O)OC(C)(C)C)CC4)nc3)c3c(C#N)cnn3c2)cn1 [Example 506, tert-butyl (2-(4-(5-(3-cyano-6-(1-methyl-1H-pyrazol-4-yl)pyrazolo[1,5-a]pyridin-4-yl)pyridin-2-yl)piperazin-1-yl)ethyl)carbamate] | 7.50 | – | – | 8.19 | pIC50 [3]: 6.67
2 | C[C@H](O)[C@@H](C)N1CCN(c2ccc(-c3cc(-c4cnn(C)c4)cn4ncc(C#N)c34)cn2)CC1 (racemic) [Example 165, rac-4-(6-(4-((2R*,3S*)-3-hydroxybutan-2-yl)piperazin-1-yl)pyridin-3-yl)-6-(1-methyl-1H-pyrazol-4-yl)pyrazolo[1,5-a]pyridine-3-cartonitrile] | 7.61 | – | 5.69 | 7.54 | –
3 | CCC1(C(=O)NCCC(F)(F)F)CCN(c2ccc(-c3cc(-c4cnn(C)c4)cn4ncc(C#N)c34)cn2)CC1 [Example 255, 1-(5-(3-cyano-6-(1-methyl-1H-pyrazol-4-yl)pyrazolo[1,5-a]pyridin-4-yl)pyridin-2-yl)-4-ethyl-N-(3,3,3-trifluoropropyl)piperidine-4-carboxamide] | 8.04 | 8.14 | 5.96 | – | –
4 | Cn1cc(-c2cc(-c3ccc(N4CCC(S(C)(=O)=O)CC4)nc3)c3c(C#N)cnn3c2)cn1 [Example 567, 6-(1-methyl-1H-pyrazol-4-yl)-4-(6-(4-(methylsulfonyl)piperidin-1-yl)pyridin-3-yl)pyrazolo[1,5-a]pyridine-3-carbonitrile] | 8.51 | – | – | 8.31 | pIC50 [3]: 6.70
5 | Cn1cc(-c2cc(-c3ccc(N4CCC(C)(C(=O)NCCC(F)(F)F)CC4)nc3)c3c(C#N)cnn3c2)cn1 [Example 250, 1-(5-(3-cyano-6-(1-methyl-1H-pyrazol-4-yl)pyrazolo[1,5-a]pyridin-4-yl)pyridin-2-yl)-4-methyl-N-(3,3,3-trifluoropropyl)piperidine-4-carboxamide] | 8.15 | 8.21 | 6.33 | – | –
6 | CCC1(C(=O)N[C@H](C)C(F)(F)F)CCN(c2ccc(-c3cc(-c4cnn(C)c4)cn4ncc(C#N)c34)cn2)CC1 [Example 257, (R)-1-(5-(3-cyano-6-(1-methyl-1H-pyrazol-4-yl)pyrazolo[1,5-a]pyridin-4-yl)pyridin-2-yl)-4-ethyl-N-(1,1,1-trifluoropropan-2-yl)piperidine-4-carboxamide] | 7.83 | 8.03 | 5.87 | – | –
7 | COCC(=O)N1CCN(c2ccc(-c3cc(-c4cnn(C)c4)cn4ncc(Cl)c34)cn2)CC1 [Example 329, 1-(4-(5-(3-chloro-6-(1-methyl-1H-pyrazol-4-yl)pyrazolo[1,5-a]pyridin-4-yl)pyridin-2-yl)piperazin-1-yl)-2-methoxyethanone] | 7.63 | 7.34 | 6.42 | – | –
8 | CN(C)C(=O)CN1CCN(c2ccc(-c3cc(-c4cnn(C)c4)cn4ncc(C#N)c34)cn2)CC1 [Example 143, 2-(4-(5-(3-cyano-6-(1-methyl-1H-pyrazol-4-yl)pyrazolo[1,5-a]pyridin-4-yl)pyridin-2-yl)piperazin-1-yl)-N,N-dimethylacetamide 2,2,2-trifluoroacetate] | – | 7.16 | 5.75 | – | pIC50 [1]: 7.47
9 | CC(C)N(CCO)C(=O)C1CCN(c2ccc(-c3cc(-c4cnn(C)c4)cn4ncc(C#N)c34)cn2)CC1 [Example 561, 1-(5-(3-cyano-6-(1-methyl-1H-pyrazol-4-yl)pyrazolo[1,5-a]pyridin-4-yl)pyridin-2-yl)-N-(2-hydroxyethyl)-N-isopropylpiperidine-4-carboxamide 2,2,2-trifluoroacetate] | 7.62 | – | – | 7.43 | pIC50 [3]: 5.76
10 | CC(C)OCCN1CCN(c2ccc(-c3cc(-c4cnn(C(F)F)c4)cn4ncc(C#N)c34)cn2)CC1 [Example 585, 6-(1-(difluoromethyl)-1H-pyrazol-4-yl)-4-(6-(4-(2-isopropoxyethyl)piperazin-1-yl)pyridin-3-yl)pyrazolo[1,5-a]pyridine-3-carbonitrile] | 7.87 | – | – | 7.88 | –
11 | Cc1nn(C)c(C)c1-c1cc(-c2ccc(N3CCN(Cc4ccccc4)CC3)nc2)c2c(C#N)cnn2c1 [Example 613, 4-(6-(4-benzylpiperazin-1-yl)pyridin-3-yl)-6-(1,3,5-trimethyl-1H-pyrazol-4-yl)pyrazolo[1,5-a]pyridine-3-carbonitrile] | 6.91 | – | – | 6.44 | –
12 | COc1ccc(CN2CCN(c3ncc(-c4cc(-c5cnn(C)c5)cn5ncc(C#N)c45)cc3F)CC2)cn1 [Example 736, 4-(5-fluoro-6-(4-((6-methoxypyridin-3-yl)methyl)piperazin-1-yl)pyridin-3-yl)-6-(1-methyl-1H-pyrazol-4-yl)pyrazolo[1,5-a]pyridine-3-carbonitrile] | 7.45 | – | – | 7.17 | –
13 | CN(C)CCC(=O)N1CCN(c2ccc(-c3cc(-c4cnn(C)c4)cn4ncc(C#N)c34)cn2)CC1 [Example 33, 4-(6-(4-(3-(dimethylamino)propanoyl)piperazin-1-yl)pyridin-3-yl)-6-(1-methyl-1H-pyrazol-4-yl)pyrazolo[1,5-a]pyridine-3-carbonitrile bis(2,2,2-trifluoroacetate)] | 7.37 | – | – | – | pIC50 ([2]; read-out: KIF5B-RET pTYR1062 Cell IC50): 6.51

More lines, main results first:

Row | pIC50 ([1]; wild type RET, 1 mM ATP) | pIC50 [2, 5] | pIC50 ([3]; 10% FBS) | SMILES | pIC50 [2] | also measured
14 | 7.60 | – | – | CO[C@@H](C)CN1CCN(c2ccc(-c3cc(-c4cnn(C)c4)cn4ncc(C#N)c34)cn2)CC1 [Example 415, (S)-4-(6-(4-(2-methoxypropyl)piperazin-1-yl)pyridin-3-yl)-6-(1-methyl-1H-pyrazol-4-yl)pyrazolo[1,5-a]pyridine-3-carbonitrile] | – | pIC50 [2, 4]: 7.60; pIC50 [3]: 5.69
15 | 7.90 | 7.31 | 5.98 | C[C@H](O)CC(=O)N1CCN(c2ccc(-c3cc(-c4cnn(C)c4)cn4ncc(C#N)c34)cn2)CC1 [Example 57, (S)-4-(6-(4-(3-hydroxybutanoyl)piperazin-1-yl)pyridin-3-yl)-6-(1-methyl-1H-pyrazol-4-yl)pyrazolo[1,5-a]pyridine-3-carbonitrile] | – | –
16 | 8.26 | 7.94 | 6.49 | CCNC(=O)N1CCN(c2ccc(-c3cc(-c4cnn(C)c4)cn4ncc(C#N)c34)cn2)CC1 [Example 134, 4-(5-(3-cyano-6-(1-methyl-1H-pyrazol-4-yl)pyrazolo[1,5-a]pyridin-4-yl)pyridin-2-yl)-N-ethylpiperazine-1-carboxamide] | – | –
17 | 8.20 | 8.15 | 6.41 | CC(C)CC(=O)N1CCN(c2ccc(-c3cc(-c4cnn(C)c4)cn4ncc(C#N)c34)cn2)CC1 [Example 75, 6-(1-methyl-1H-pyrazol-4-yl)-4-(6-(4-(3-methylbutanoyl)piperazin-1-yl)pyridin-3-yl)pyrazolo[1,5-a]pyridine-3-carbonitrile] | – | –
18 | 7.98 | 6.96 | 5.92 | C[C@@H](O)C(=O)NC1CCN(c2ccc(-c3cc(-c4cnn(C)c4)cn4ncc(C#N)c34)cn2)CC1 [Example 181, (R)-N-(1-(5-(3-cyano-6-(1-methyl-1H-pyrazol-4-yl)pyrazolo[1,5-a]pyridin-4-yl)pyridin-2-yl)piperidin-4-yl)-2-hydroxypropanamide] | – | –
19 | 8.00 | – | – | COc1ncccc1CN1CCN(c2ccc(-c3cc(-c4cnn(C)c4)cn4ncc(C#N)c34)cn2)CC1 [Example 452, 4-(6-(4-((2-methoxypyridin-3-yl)methyl)piperazin-1-yl)pyridin-3-yl)-6-(1-methyl-1H-pyrazol-4-yl)pyrazolo[1,5-a]pyridine-3-carbonitrile] | – | pIC50 [2, 4]: 7.92; pIC50 [3]: 6.07
20 | 7.68 | 7.16 | 6.18 | CC(C)CN(C)C(=O)C1CCN(c2ccc(-c3cc(-c4cnn(C)c4)cn4ncc(C#N)c34)cn2)CC1 [Example 244, 1-(5-(3-cyano-6-(1-methyl-1H-pyrazol-4-yl)pyrazolo[1,5-a]pyridin-4-yl)pyridin-2-yl)-N-isobutyl-N-methylpiperidine-4-carboxamide] | – | –
21 | 8.21 | – | – | CC(C)NS(=O)(=O)C1CCN(c2ccc(-c3cc(-c4cnn(C)c4)cn4ncc(C#N)c34)cn2)CC1 [Example 569, 1-(5-(3-cyano-6-(1-methyl-1H-pyrazol-4-yl)pyrazolo[1,5-a]pyridin-4-yl)pyridin-2-yl)-N-isopropylpiperidine-4-sulfonamide] | – | pIC50 [2, 4]: 8.55; pIC50 [3]: 8.66
22 | 8.21 | – | – | Cn1cc(-c2cc(-c3ccc(N4CCC(S(=O)(=O)O)CC4)nc3)c3c(C#N)cnn3c2)cn1 [Example 568, 1-(5-(3-cyano-6-(1-methyl-1H-pyrazol-4-yl)pyrazolo[1,5-a]pyridin-4-yl)pyridin-2-yl)piperidine-4-sulfonic acid] | – | pIC50 [2, 4]: 5.30
